Several values for one entry are separate records, joined by “and”; a condition that tells them apart may be missing. Equal values may be shown once. Entries after “also recorded” stand apart in the source; their conditions may differ. Blank lines part the entries; values can stand above or below the compound they belong to.
Tests used:
L1210 cells [1] = test: Nucleoside transport (30-sec cellular uptake) in L1210 cells; assay type: cell-based, murine
Experimental: FIG. 10. Concentration-dependent inhibition of nucleoside transport by the TT analog TT2 in L1210 cells in vitro. […] After washing thrice with PBS, intact cell pellets were harvested by centrifugation, incubated for 30 min in 1 ml of HLB containing 0.2% Triton X-100, and these lysates were mixed with scintillation cocktail and counted to estimate the cellular uptake of ^3H-thymidine. Results are expressed as % of ^3H-thymidine transported into vehicle-treated control cells over 30 sec (15,031±872 cpm; 100±6%; striped area).
FIG. 11. Comparison of the inhibitory effects of novel TT analogs on DNA synthesis (open) and nucleoside transport (striped) in L1210 cells in vitro. The cellular uptake of ^3H-thymidine (striped) and the rate of ^3H-thymidine incorporation into DNA (open) were determined in cells (1.38×10^6/0.5 ml of RPMI 1640 medium) respectively preincubated at 37° C. for 15 or 90 min in the presence or absence (control) of 7 μM concentrations of the indicated compounds. For the cellular transport of nucleosides, preincubated cells were then exposed to 1 μCi of ^3H-thymidine for 30 sec at 37° C. Results are expressed as % of ^3H-thymidine transported into vehicle-treated control cells over 30 sec (15,539±1,767 cpm; 100±11%; striped control). For DNA synthesis, preincubated cells were then pulse-labeled with 1 μCi of ^3H-thymidine for an additional 30 min at 37° C. Results are expressed as % of ^3H-thymidine incorporation into DNA in vehicle-treated control cells over 30 min (28,505±2,594 cpm; 100±9%; open control). The blank value (1,075±171 cpm) for cells incubated and pulse-labeled at 2° C. with 1 μCi of ^3H-thymidine has been substracted from the results. Bars: means±SD (n=3). ^aNot different from TT3, TT7, TT9 and TT11; ^bP<0.01, smaller than TT1 but not different from TT13; ^cnot different from control; ^dP<0.025, greater than TT1; ^eP<0.05, smaller than control.
FIG. 12. Irreversibility of the inhibitory effects of the novel TT analog TT2 on DNA synthesis (open) and nucleoside transport (striped) in L1210 cells in vitro. […] The cellular uptake of ^3H-thymidine (striped) and the rate of ^3H-thymidine incorporation into DNA (open) were determined in cells (1.64×10^6/0.5 ml of RPMI 1640 medium) respectively preincubated at 37° C. for 15 or 60 min in the presence or absence (control) of 10 and 25 μM TT2 or 25 μM H10. The protocol of the experiments and the determination of the results were identical to those of FIGS. 9 and 10, except that, after preincubation, either the drugs were maintained in the culture medium (+) or the cells were spun, washed, and resuspended in fresh medium in order to remove the drugs (−). After preincubation, vehicle-treated controls were similarly spun and washed. For the cellular transport of nucleosides, preincubated cells were then exposed, in the presence (+) or absence (−) of TT2 or H10, to 1 μCi of ^3H-thymidine for 30 sec at 37° C. Results are expressed as % of ^3H-thymidine transported into vehicle-treated control cells over 30 sec (11,054±754 cpm; 100±7%; striped control+; 14,486±1,260 cpm; 100±9%; striped control−). For DNA synthesis, preincubated cells were then pulse-labeled with 1 μCi of ^3H-thymidine for an additional 30 min at 37° C. in the presence (+) or absence (−) of TT2 or H10. Results are expressed as % of ^3H-thymidine incorporation into DNA in vehicle-treated control cells over 30 min (34,052±1,566 cpm; 100±5%; open control+; 28,811±2,506 cpm; 100±9%; open control−). The blank value (1,328±86 cpm) for cells incubated and pulse-labeled at 2° C. with 1 μCi of ^3H-thymidine has been substracted from the results. Bars: means±SD (n=3).
L1210 cells (about 1.5×10^6 cells/0.5 ml) were preincubated for 15 min at 37° C. in the presence or absence of TTs and then exposed to 1 μCi of ^3H-thymidine for only 30 sec to assess the cellular uptake of nucleoside over such very short period of time. […]

L1210 cells [2] = test: DNA synthesis (3H-thymidine incorporation) in L1210 cells; assay type: cell-based, murine; details: for concentration at which the drug becomes effective against DNA synthesis: 2-h treatment
Experimental: FIG. 9. […] Cells (1.14×10^6/0.5 ml of RPMI 1640 medium) were incubated at 37° C. for 90 min in the presence or absence (control) of the indicated concentrations of drugs, which are plotted on a logarithmic scale, and then pulse-labeled for an additional 30 min to determine the rate of ^3H-thymidine incorporation into DNA.
FIG. 11. […] The cellular uptake of ^3H-thymidine (striped) and the rate of ^3H-thymidine incorporation into DNA (open) were determined in cells (1.38×10^6/0.5 ml of RPMI 1640 medium) respectively preincubated at 37° C. for 15 or 90 min in the presence or absence (control) of 7 μM concentrations of the indicated compounds. For the cellular transport of nucleosides, preincubated cells were then exposed to 1 μCi of ^3H-thymidine for 30 sec at 37° C. […] For DNA synthesis, preincubated cells were then pulse-labeled with 1 μCi of ^3H-thymidine for an additional 30 min at 37° C.
FIG. 12. […] The cellular uptake of ^3H-thymidine (striped) and the rate of ^3H-thymidine incorporation into DNA (open) were determined in cells (1.64×10^6/0.5 ml of RPMI 1640 medium) respectively preincubated at 37° C. for 15 or 60 min in the presence or absence (control) of 10 and 25 μM TT2 or 25 μM H10. […] After preincubation, vehicle-treated controls were similarly spun and washed. For the cellular transport of nucleosides, preincubated cells were then exposed, in the presence (+) or absence (−) of TT2 or H10, to 1 μCi of ^3H-thymidine for 30 sec at 37° C. […] For DNA synthesis, preincubated cells were then pulse-labeled with 1 μCi of ^3H-thymidine for an additional 30 min at 37° C. in the presence (+) or absence (−) of TT2 or H10. […] Bars: means±SD (n=3).
For nucleic acid and protein syntheses, L1210 cells were resuspended in fresh FCS-containing RPMI 1640 medium at a density of about 1.1-1.6×10^6 cells/0.5 ml. To estimate the rate of DNA synthesis, HL-60-S, HL-60-RV and HL-60-R8 cells were resuspended in fresh FCS-containing RPMI 1640 medium at a density of 5×10^5 cells/0.5 ml.

SMILES: COC(=O)C1=C(C(=O)OC)C[C@H]2C(=O)C3=C(C(=O)[C@H]2C1)C1C2=C(C(=O)[C@H]4CC(C(=O)OC)=C(C(=O)OC)C[C@H]4C2=O)C3c2ccccc21 [TT4, (4aS*,7aR*,11aS*,14aR*)-Tetramethyl 1,4,4a,5,6,7,7a,8,11,11a,12,13,14,14a-tetradecahydro-5,7,12,14-tetraoxo-6,13-[1′,2′]benzenopentacene-2,3,9,10-tetracarboxylate]
effect on nucleoside transport (L1210 cells [1]; 7 μM, 15 min): alter neither | effect on DNA synthesis (L1210 cells [2]; 7 μM, 2 h): alter neither

SMILES: COC1=C(Br)C(=O)C2=C(C1=O)C1C3=C(C(=O)C=C(N(C)C)C3=O)C2c2ccccc21 (stereo not drawn) [TT16, 2-Bromo-3-methoxy-6-(dimethylamino)-9,10-dihydro-9,10-[1′,2′]benzenoanthracene-1,4,5,8-tetraone]
potency on cellular transport of adenosine and thymidine compared with TT2 (L1210 cells [1]; FIG. 13): as potent as TT2 | potency on DNA synthesis compared with TT2 (L1210 cells [2]; FIG. 13): as potent as TT2

IC50 (L1210 cells [1]; 15-min pretreatment, 30-sec uptake, read-out: IC50, inhibition of cellular transport of nucleosides): 6 µM | IC50 (L1210 cells [2]; 90 min drug + 30 min pulse-labeling (2 h), read-out: IC50, inhibition of DNA synthesis in L1210 cells): 6 µM and ~6 µM
SMILES: COC1=CC(=O)C2=C(C1=O)C1C3=C(C(=O)C=CC3=O)C2c2ccccc21 (stereo not drawn) [TT2, 2-Methoxy-9,10-dihydro-9,10-[1′,2′]benzenoanthracene-1,4,5,8-tetraone]
% inhibition of nucleoside transport (L1210 cells [1]; 10 μM TT2, 15-min preincubation): 67% | effect on nucleoside transport (L1210 cells [1]; 25 μM TT2): totally inhibited | % inhibition of nucleoside transport (L1210 cells [1]; 25 μM TT2, 15-min preincubation): 93% | reversibility of the inhibition of nucleoside transport upon drug removal (L1210 cells [1]; 10 and 25 μM TT2 or 25 μM H10, 15-min preincubation): irreversible | % inhibition of DNA synthesis (L1210 cells [2]; 10 μM TT2, 60-min preincubation): 69% | effect on DNA synthesis (L1210 cells [2]; 25 μM TT2, 2-h treatment): totally inhibited | % inhibition of DNA synthesis (L1210 cells [2]; 25 μM TT2, 60-min preincubation): 97% | concentration at which the drug becomes effective against DNA synthesis (L1210 cells [2]): greater than 1.6 μM | reversibility of the inhibition of DNA synthesis upon drug removal (L1210 cells [2]; 10 and 25 μM TT2 or 25 μM H10, 60-min preincubation): irreversible | times TT2 inhibits DNA, RNA and protein syntheses less effectively than DAU (L1210 cells [2]; L1210, after 2-3 h, IC50 values compared): 3-6 times

SMILES: COC(=O)C1=C(C(=O)OC)C[C@H]2[C@@H](C1)[C@@H](O)C1=C(C3C4=C(C1c1ccccc13)[C@@H](O)[C@H]1CC(C(=O)OC)=C(C(=O)OC)C[C@H]1[C@H]4O)[C@H]2O [TT12, (4aS*,5S*,7R*,12S*,14R*,7aR*,11aS*,14aR*)-Tetramethyl 1,4,4a,5,6,7,7a,8,11,11a,12,13,14,14a-tetradecahydro-5,7,12,14-tetrahydroxy-6,13-[1′,2′]benzenopentacene-2,3,9,10-tetracarboxylate]
effect on nucleoside transport (L1210 cells [1]; 7 μM, 15 min): alter neither | effect on DNA synthesis (L1210 cells [2]; 7 μM, 2 h): alter neither

SMILES: COc1cccc2c1C(=O)c1c(O)c3c(c(O)c1C2=O)C[C@@](O)(C(C)=O)C[C@@H]3O[C@H]1C[C@H](N)[C@H](O)[C@H](C)O1 [DAU, daunomycin, reference compound]
effect of DAU on cellular transport of nucleosides (L1210 cells [1]; 15-min treatment, 30-sec uptake, 10 μM DAU): inactive; also recorded: totally unable | concentration at which the drug becomes effective against DNA synthesis (L1210 cells [2]): 0.256 µM | times DAU prevents DNA synthesis more effectively than TT2 (L1210 cells [2]; L1210, from IC50 values): about 6 times
